# Measurements reported in patent publication US9457101B2, “Hydrogels for delivery of therapeutic polypeptides” (priority 2012, dated 2016).
# Read-outs that look alike come from different tables or passages of the source.
# Key:
# [1] = system: blood vessels per area formed in the hydrogel; assay: Mouse angiogenesis model, subcutaneous hydrogel implants; assay type: in vivo, mice; conditions: GM6001 intraperitoneally 0.1 mg/g once daily for two weeks
# From the text: PEGDA:GSH hydrogel is loaded with one or more GST-polypeptide fusions having a cleavage site for matrix metalloprotease-9 between GST and the polypeptide. Matrix metalloprotease-9 (MMP-9) recognizes the cleavage site having the amino acid sequence […] (SEQ ID NO:5). The loaded hydrogel is implanted in a mouse angiogenesis model to assess the bioactivity of the released polypeptides. Particularly, the polypeptides eGFP (i.e., Green Fluorescent Protein), mCherry (Red Fluorescent Protein), and a cell lytic polypeptide having the amino acid sequence […] (SEQ ID NO:3) are examined in this angiogenesis model.
# Specifically, mice are administered an intraperitoneal injection of ketamine and xylazine (100 mg/kg and 5 mg/kg, respectively), and an injection site is rubbed with 75% ethanol. Anesthesia is indicated by a toe pinch reflex test. All instruments are autoclaved prior to use and standard aseptic technique is followed for the procedure as detailed below. […]
# After 14 days, the inserted hydrogels are removed for whole mount immunostaining to determine the number of blood vessels per area formed in the hydrogel. […] Particularly, after one-hour of blocking, the hydrogel is incubated with anti-CD31 antibody overnight at 4 degrees Celsius to allow for fluorescence imaging of the endothelium formed about and/or within the hydrogel. […]
# [2] = target: glutathione s-transferase; conditions: read-out: dissociation constant of glutathione from glutathione s-transferase; cited from earlier work
# [3] = system: S. pyogenes; assay: Bacterial growth inhibition by free proteins (A600); assay type: cell-based; conditions: 10 μM, at 5 hours
# Procedure: Bacterial Growth Inhibition. Following digestion with thrombin as described above, GSH-agarose beads (GoldBio, St. Louis, Mo.) were used to separate GST from recombinant melittin. Synthetic melittin and GST-6xHis-melittin underwent a similar process without thrombin or being subjected to GSH-agarose treatment. Overnight cultures of S. pyogenes (ATCC, Manassas, Va., BAA-1633) cells were diluted in chemically defined medium were diluted to approximately 10^8 colony forming units (CFUs), corresponding to an absorbance at 600 nm (A600) of 0.1, and 150 μL distributed into 96-well, optical-bottom plates (Greiner BioOne, Frickenhausen, Germany) for treatment. GST-6xHis-melittin, recombinant melittin, or synthetic melittin (10 μM) were then added and the plate was incubated at 37° C. with shaking using a Biotek Synergy 2 plate reader (Winooski, Vt.). Absorbance (A600) measurements were obtained every ten minutes for 12 hours.
# [4] = system: U-87 MG cells; assay: Tumor cell growth inhibition (MTS assay); assay type: cell-based; conditions: 10 μM protein (thrombin 2 U), fusion without thrombin
# Procedure: Tumor Cell Growth Inhibition. All proteins were incubated with thrombin at 37° C. for two hours prior to cellular assays. Malignant glioma cells, U-87 MG, (ATCC, Manassas, Va., 3,000 cells/cm^2) were seeded in a 96 well plate together with appropriate treatments in 100 μL DMEM and 10% FCS (Sigma-Aldrich, St. Louis, Mo.). Treatments included a cell only control (untreated), thrombin (2 U), GST (10 μM), GST-6xHis-melittin (10 μM), GST-6xHis-melittin (10 μM) simultaneously with thrombin (2 U), or synthetic melittin (10 μM; GenScript RP20415, Sigma-Aldrich, St. Louis, Mo.). The cells with their respective treatments were incubated at 37° C. in 5% CO2 overnight, approximately 16 hours. The MTS assay (Promega, Madison, Wis., CellTitre96) was performed according to the manufacturer recommendation and incubated for two hours before reading absorbance at 495 nm on a Labsystems Multiskan plus plate reader (Thermo Scientific, Hanover Park, Ill.).
# [5] = system: thrombin; assay: Kinetics of thrombin cleavage of GST-GFP (SDS-PAGE densitometry); assay type: biochemical; conditions: for Km: read-out: Michaelis-Menten constant (Km) of thrombin to GST-GFP
# Procedure: Reaction kinetics were measured by semi-quantitative densitometry of SDS-PAGE gels. Reactions with equivalent concentrations of GST-GFP substrate and varying concentrations of thrombin (0.1, 0.33, 0.75, 1.5, and 3 μM) were incubated at 37° C. for varying amounts of time. In groups where cleavage from microspheres was reported, approximately 10,000 microspheres were used. Reactions were stopped by addition of Laemmli sample buffer (containing SDS) and stored at 4° C. until run on SDS-PAGE. All gels were run with known concentrations of BSA standards. Density measurements were made with NIH imageJ software with gel backgrounds normalized. Each thrombin concentration was run one time, except for […], which was ran in biological triplicate.
# [6] = below 1 mM GSH, after 6 days
# Procedure: Protein Release. GSH mediated release studies were carried out over 6 days. Protein release was measured from 10,000 to 20,000 microspheres into 500 μL PBS in the presence and absence of glutathione. Release was measured with three independent replicates per experimental group. […] Therefore, at each 24-hour time point, glutathione containing buffers were completely replaced. The buffer that was removed was frozen for later analysis. At the completion of the experiment, all frozen samples were thawed and 50 μL of each samples were diluted in PBS and read on a Quantech fluorometer.
compound,measurement,setting,value
CNC(=O)[C@H](Cc1c[nH]c2ccccc12)NC(=O)[C@@H](CC(=O)NO)CC(C)C [GM6001],vessel growth in the hydrogel,[1],limited vessel growth
N[C@@H](CCC(=O)N[C@@H](CS)C(=O)NCC(=O)O)C(=O)O [glutathione],Kd,[2],22 µM
"CC[C@H](C)[C@H](NC(=O)CN)C(=O)NCC(=O)N[C@@H](C)C(=O)N[C@H](C(=O)N[C@@H](CC(C)C)C(=O)N[C@@H](CCCCN)C(=O)N[C@H](C(=O)N[C@@H](CC(C)C)C(=O)N[C@H](C(=O)N[C@H](C(=O)NCC(=O)N[C@@H](CC(C)C)C(=O)N1CCC[C@H]1C(=O)N[C@@H](C)C(=O)N[C@@H](CC(C)C)C(=O)N[C@H](C(=O)N[C@@H](CO)C(=O)N[C@@H](Cc1c[nH]c2ccccc12)C(=O)N[C@H](C(=O)N[C@@H](CCCCN)C(=O)N[C@@H](CCCNC(=N)N)C(=O)N[C@@H](CCCCN)C(=O)N[C@@H](CCCNC(=N)N)C(=O)N[C@@H](CCC(N)=O)C(=O)N[C@@H](CCC(N)=O)C(N)=O)[C@@H](C)CC)[C@@H](C)CC)[C@@H](C)O)[C@@H](C)O)C(C)C)C(C)C [synthetic melittin, melittin, reference compound]",growth of S. pyogenes,[3],almost completely inhibited the growth
same,survival of U-87 MG cells,[4],15%
GST-GFP,apparent Vmax of thrombin mediated release,[5],0.13 µg/min
same,Km,[5]; GST-GFP in association with PEGDA-GSH microspheres,~0.3 µM
same,Km,[5]; free GST-GFP,~0.18 µM
same,protein remaining associated with the particles,[6],more than 80%
recombinant melittin: melittin cleaved by thrombin from purified recombinant GST-6xHis-melittin,growth of S. pyogenes,[3],almost completely inhibited the growth
